# Experiments:
# cocklebur = experiment: Test B pre/postemergence cocklebur; format: in vivo, Xanthium strumarium
# Summary of the method: (§1)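 Herbicidal effect was estimated by eye on a ten-point control scale after plants spent twelve to sixteen days in a greenhouse following soil or foliar treatment. Foliar sprays targeted plants at one to four leaves; all doses were formulated in a non-phytotoxic solvent with surfactant.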
# crabgrass = experiment: Test B pre/postemergence crabgrass; format: in vivo, Digitaria sanguinalis
# Summary of the method: as §1
# wheat = experiment: Test B pre/postemergence wheat; format: in vivo, Triticum aestivum
# Summary of the method: as §1
# wild oat = experiment: Test B pre/postemergence wild oat; format: in vivo, Avena fatua
# Summary of the method: as §1
# [1] = Postemergence, Rate 31 g/ha, visual rating, scale 0 to 10 (0 no effect, 10 complete control)
# [2] = Postemergence, Rate 250 g/ha, scale 0 to 10
# [3] = Preemergence, Rate 31 g/ha, visual rating, scale 0 to 10 (0 no effect, 10 complete control)
# [4] = Preemergence, Rate 62 g/ha, scale of 0 to 10 where 0 is no effect and 10 is complete control
# [5] = Preemergence, Rate 125 g/ha, scale of 0 to 10 where 0 is no effect and 10 is complete control
# [6] = Preemergence, Rate 250 g/ha, scale 0 to 10, 0 is no effect, 10 is complete control
# [7] = Rate 62 g/ha, Postemergence, scale 0 to 10 (0 no effect, 10 complete control)
# [8] = Rate 125 g/ha, Postemergence, scale 0 to 10, 0 is no effect, 10 is complete control
# [9] = Postemergence, Rate 500 g/ha, scale of 0 to 10 where 0 is no effect and 10 is complete control
# [10] = Preemergence, Rate 500 g/ha, scale 0 to 10, 0 is no effect, 10 is complete control
# [11] = Postemergence, Rate 62 g/ha, scale of 0 to 10, 0 is no effect, 10 is complete control
# [12] = Postemergence, Rate 125 g/ha, scale 0 to 10, 0 is no effect, 10 is complete control
# [13] = Postemergence, Rate 500 g/ha, scale 0 to 10, 0 is no effect, 10 is complete control
# [14] = Preemergence, Rate 125 g/ha, scale 0 to 10, 0 is no effect, 10 is complete control
# [15] = Preemergence, Rate 500 g/ha, scale of 0 to 10 where 0 is no effect and 10 is complete control
# [16] = Rate 250 g/ha, Postemergence, scale of 0 to 10 where 0 is no effect and 10 is complete control
structure (smiles),measurement,setting,value
CC(C)N(C(=O)n1oc(=O)n(CC2=NOCCC2)c1=O)c1ccc(Cl)cc1 [Compound 450],Cocklebur plant response rating,cocklebur; [1],0
same,Cocklebur plant response rating,cocklebur; [2],0
same,Cocklebur plant response rating,cocklebur; [3],0
same,"Plant response rating, Cocklebur",cocklebur; [4],0
same,"Plant response rating, Cocklebur",cocklebur; [5],0
same,Cocklebur plant response rating,cocklebur; [6],0
same,Cocklebur plant response rating,cocklebur; [7],0
same,Cocklebur plant response rating,cocklebur; [8],0
same,Crabgrass plant response rating,crabgrass; [1],0
same,Crabgrass plant response rating,crabgrass; [2],4
same,Crabgrass plant response rating,crabgrass; [3],0
same,"Plant response rating, Crabgrass",crabgrass; [4],2
same,"Plant response rating, Crabgrass",crabgrass; [5],7
same,Crabgrass plant response rating,crabgrass; [6],8
same,Crabgrass plant response rating,crabgrass; [7],0
same,Crabgrass plant response rating,crabgrass; [8],2
same,Wheat plant response rating,wheat; [1],0
same,Wheat plant response rating,wheat; [2],0
same,"Plant response rating, Wheat",wheat; [4],0
same,"Plant response rating, Wheat",wheat; [5],0
same,Wheat plant response rating,wheat; [6],0
same,Wheat plant response rating,wheat; [7],0
same,Wheat plant response rating,wheat; [8],0
same,Wild oats plant response rating,wild oat; [1],0
same,Wild oats plant response rating,wild oat; [2],0
same,"Plant response rating, Wild oats",wild oat; [4],0
same,"Plant response rating, Wild oats",wild oat; [5],0
same,Wild oats plant response rating,wild oat; [6],0
same,Wild oats plant response rating,wild oat; [7],0
same,Wild oats plant response rating,wild oat; [8],0
CC(C)N(C(=O)n1oc(=O)n(CCC[Si](C)(C)C)c1=O)c1ccc(F)cc1 [Compound 461],Cocklebur plant response rating,cocklebur; [2],0
same,Cocklebur plant response rating,cocklebur; [9],3
same,"Plant response rating, Cocklebur",cocklebur; [4],0
same,"Plant response rating, Cocklebur",cocklebur; [5],0
same,Cocklebur plant response rating,cocklebur; [6],0
same,Cocklebur plant response rating,cocklebur; [10],0
same,Cocklebur plant response rating,cocklebur; [7],0
same,Cocklebur plant response rating,cocklebur; [8],0
same,Crabgrass plant response rating,crabgrass; [2],0
same,Crabgrass plant response rating,crabgrass; [9],2
same,"Plant response rating, Crabgrass",crabgrass; [4],0
same,"Plant response rating, Crabgrass",crabgrass; [5],0
same,Crabgrass plant response rating,crabgrass; [6],0
same,Crabgrass plant response rating,crabgrass; [10],3
same,Crabgrass plant response rating,crabgrass; [7],0
same,Crabgrass plant response rating,crabgrass; [8],0
same,Wheat plant response rating,wheat; [2],0
same,"Plant response rating, Wheat",wheat; [4],0
same,"Plant response rating, Wheat",wheat; [5],0
same,Wheat plant response rating,wheat; [6],0
same,Wheat plant response rating,wheat; [10],0
same,Wheat plant response rating,wheat; [7],0
same,Wheat plant response rating,wheat; [8],0
same,Wild oats plant response rating,wild oat; [2],0
same,"Plant response rating, Wild oats",wild oat; [4],0
same,"Plant response rating, Wild oats",wild oat; [5],0
same,Wild oats plant response rating,wild oat; [6],0
same,Wild oats plant response rating,wild oat; [10],0
same,Wild oats plant response rating,wild oat; [7],0
same,Wild oats plant response rating,wild oat; [8],0
CC(C)N(C(=O)n1oc(=O)n(CCCl)c1=O)c1ccc(Cl)cc1 [Compound 474],Cocklebur plant response rating,cocklebur; [2],0
same,Cocklebur plant response rating,cocklebur; [9],4
same,"Plant response rating, Cocklebur",cocklebur; [4],0
same,"Plant response rating, Cocklebur",cocklebur; [5],0
same,Cocklebur plant response rating,cocklebur; [6],0
same,Cocklebur plant response rating,cocklebur; [10],0
same,Cocklebur plant response rating,cocklebur; [7],0
same,Cocklebur plant response rating,cocklebur; [8],0
same,Crabgrass plant response rating,crabgrass; [2],6
same,Crabgrass plant response rating,crabgrass; [9],9
same,"Plant response rating, Crabgrass",crabgrass; [4],6
same,"Plant response rating, Crabgrass",crabgrass; [5],9
same,Crabgrass plant response rating,crabgrass; [6],9
same,Crabgrass plant response rating,crabgrass; [10],10
same,Crabgrass plant response rating,crabgrass; [7],2
same,Crabgrass plant response rating,crabgrass; [8],5
same,Wheat plant response rating,wheat; [2],0
same,"Plant response rating, Wheat",wheat; [4],0
same,"Plant response rating, Wheat",wheat; [5],0
same,Wheat plant response rating,wheat; [6],0
same,Wheat plant response rating,wheat; [10],0
same,Wheat plant response rating,wheat; [7],0
same,Wheat plant response rating,wheat; [8],0
same,Wild oats plant response rating,wild oat; [2],0
same,"Plant response rating, Wild oats",wild oat; [4],0
same,"Plant response rating, Wild oats",wild oat; [5],3
same,Wild oats plant response rating,wild oat; [6],4
same,Wild oats plant response rating,wild oat; [10],8
same,Wild oats plant response rating,wild oat; [7],0
same,Wild oats plant response rating,wild oat; [8],0
CC(C)N(C(=O)n1oc(=O)n(C(C)C(=O)N(C)C)c1=O)c1ccc(Cl)cc1 (stereo not drawn) [Compound 480],Cocklebur plant response rating,cocklebur; [2],0
same,Cocklebur plant response rating,cocklebur; [9],1
same,"Plant response rating, Cocklebur",cocklebur; [4],0
same,"Plant response rating, Cocklebur",cocklebur; [5],0
same,Cocklebur plant response rating,cocklebur; [6],0
same,Cocklebur plant response rating,cocklebur; [10],0
same,Cocklebur plant response rating,cocklebur; [7],0
same,Cocklebur plant response rating,cocklebur; [8],0
same,Crabgrass plant response rating,crabgrass; [2],7
same,Crabgrass plant response rating,crabgrass; [9],8
same,"Plant response rating, Crabgrass",crabgrass; [4],7
same,"Plant response rating, Crabgrass",crabgrass; [5],8
same,Crabgrass plant response rating,crabgrass; [6],8
same,Crabgrass plant response rating,crabgrass; [10],10
same,Crabgrass plant response rating,crabgrass; [7],2
same,Crabgrass plant response rating,crabgrass; [8],6
same,Wheat plant response rating,wheat; [2],0
same,"Plant response rating, Wheat",wheat; [4],0
same,"Plant response rating, Wheat",wheat; [5],0
same,Wheat plant response rating,wheat; [6],0
same,Wheat plant response rating,wheat; [10],2
same,Wheat plant response rating,wheat; [7],0
same,Wheat plant response rating,wheat; [8],0
same,Wild oats plant response rating,wild oat; [2],0
same,"Plant response rating, Wild oats",wild oat; [4],0
same,"Plant response rating, Wild oats",wild oat; [5],2
same,Wild oats plant response rating,wild oat; [6],4
same,Wild oats plant response rating,wild oat; [10],7
same,Wild oats plant response rating,wild oat; [7],0
same,Wild oats plant response rating,wild oat; [8],0
CC(C)N(C(=O)n1oc(=O)n(CCC2OCCO2)c1=O)c1ccc(Cl)cc1 [Compound 531],Cocklebur plant response rating,cocklebur; [11],0
same,Cocklebur plant response rating,cocklebur; [12],0
same,"Plant response rating, Cocklebur",cocklebur; [13],5
same,"Plant response rating, Cocklebur",cocklebur; [4],0
same,Cocklebur plant response rating,cocklebur; [14],0
same,Cocklebur plant response rating (0 to 10 scale),"cocklebur; Preemergence, Rate 250 g/ha",0
same,Cocklebur plant response rating,cocklebur; [15],0
same,"Plant response rating, Cocklebur",cocklebur; [16],2
same,Crabgrass plant response rating,crabgrass; [11],2
same,Crabgrass plant response rating,crabgrass; [12],8
same,"Plant response rating, Crabgrass",crabgrass; [13],10
same,"Plant response rating, Crabgrass",crabgrass; [4],8
same,Crabgrass plant response rating,crabgrass; [14],10
same,Crabgrass plant response rating (0 to 10 scale),"crabgrass; Preemergence, Rate 250 g/ha",10
same,Crabgrass plant response rating,crabgrass; [15],10
same,"Plant response rating, Crabgrass",crabgrass; [16],9
same,Wheat plant response rating,wheat; [11],0
same,Wheat plant response rating,wheat; [12],0
same,"Plant response rating, Wheat",wheat; [13],0
same,"Plant response rating, Wheat",wheat; [4],0
same,Wheat plant response rating,wheat; [14],0
same,Wheat plant response rating (0 to 10 scale),"wheat; Preemergence, Rate 250 g/ha",0
same,"Plant response rating, Wheat",wheat; [16],0
same,Wild oats plant response rating,wild oat; [11],0
same,Wild oats plant response rating,wild oat; [12],0
same,"Plant response rating, Wild oats",wild oat; [13],0
same,"Plant response rating, Wild oats",wild oat; [4],0
same,Wild oats plant response rating,wild oat; [14],0
same,Wild oats plant response rating (0 to 10 scale),"wild oat; Preemergence, Rate 250 g/ha",0
same,"Plant response rating, Wild oats",wild oat; [16],0
